Entries after “also recorded” stand apart in the source; their conditions may differ. Read-outs that look alike come from different tables or passages of the source.
Columns and labels:
[1] = Food intake, body and organ weight in hamster hyperlipidemia model; type: in vivo, Golden Syrian hamsters; settings: 6 weeks
Protocol: (§1) Six different experimental diets were prepared by mixing the ingredients according to Table 1 and blending these mixtures with a gelatin solution (20 g/L) in a ratio of 200 g composition per liter of solution. Once the gelatin had set, the product were cut into pieces of approximately 10 g cubes and stored frozen at −80° C. until use.
(§2) 46 male Golden Syrian hamsters (n=46; body weights=110-120 g) were housed in wire-bottomed cages at 23° C. in an animal room with 12-hour light-dark cycle (one per cage). All hamsters were maintained on a standard cereal based diet for two weeks.
(§3) After this acclimation period the hamsters were randomly divided into six test groups and fed one of the experimental diets for another six weeks.

Golden Syrian hamsters [2] = test: Analysis of plasma lipoproteins (TC, HDL, non-HDL cholesterol, TG) in hamster hyperlipidemia model; type: in vivo; settings: for plasma TC compared with the HCD group / plasma TG compared with the HCD group / plasma non-HDL-C compared with the HCD group: end of week 6; for dose dependence of the cholesterol-lowering effect: 0.2% versus 0.3% in diet
Protocol: as §1, §2, §3
Plasma total cholesterol (TC) and triacylglycerols (TG) were quantified using commercial enzymatic kits from Infinity (Waltham, Mass., U.S.A) and Stanbio Laboratories (Boerne, Tex., U.S.A.), respectively. To determine high-density lipoprotein cholesterol (HDL), low-density lipoprotein cholesterol (LDL) and very low-density lipoprotein cholesterol (VLDL) were first precipitated with a commercial kit (Stanbio) containing phosphotungstic acid and magnesium chloride. HDL cholesterol in supernatant phase was measured similarly as done for TC. Non-HDL cholesterol was calculated by deducing HDL cholesterol from TC.

Golden Syrian hamsters [3] = test: Analysis of fecal neutral and acidic sterols in hamster hyperlipidemia model; type: in vivo; settings: for increase in excretion of cholesterol and its microbial derivatives compared with the HCD control: feces
Protocol: as §1, §3
Neutral and acidic sterols in the feces were quantified by a standard method using gas chromatography (GC). In brief, the total fecal sample (300 mg) from each hamster was freeze-dried, ground and well mixed. 0.3 mg of 5α-cholestanol was added as an internal standard for quantification of neutral sterols by GC analysis. The remaining aqueous layer was saved for the analysis of acidic sterols.

Golden Syrian hamsters [4] = type: in vivo; settings: 6 weeks
Golden Syrian hamsters [5] = test: Analysis of liver cholesterol and dihydrocholesterol in hamster hyperlipidemia model; type: in vivo; settings: 6 weeks
Protocol: as §1, §3
Cholesterol content in organs was determined by a standard method. Cholesterol in the tissue sample was calculated according to the amount of internal standard 5α-cholestanol added.

[6] = test system: liver X receptor alpha (LXRα); test: Immunoblot of hepatic LXRα protein mass; type: in vivo, Golden Syrian hamsters; settings: western blot, 6 weeks
LDL receptor [7] = test: mRNA of hepatic LDL receptor; type: in vivo, Golden Syrian hamsters; settings: liver, 6 weeks
LDL receptor [8] = test: Immunoblot of hepatic LDL receptor protein mass; type: in vivo, Golden Syrian hamsters; settings: liver, western blot; 0.3% in high cholesterol diet, 6 weeks
[9] = 0.2% in high cholesterol diet, week 6
[10] = 0.3% in high cholesterol diet, week 6

SMILES: CC(C)CCC[C@@H](C)[C@H]1CC[C@H]2[C@@H]3CC[C@H]4C[C@@H](O)CC[C@]4(C)[C@H]3CC[C@]12C [DHC, dihydrocholesterol]
- epididymal fat pad weight compared with the control ([1]; 0.2% in high cholesterol diet): decreased
- kidney weight compared with HCD ([1]; 0.2% in high cholesterol diet): no significant difference
- liver weight compared with the HCD group ([1]; 0.2% in high cholesterol diet): decreased
- kidney weight compared with HCD ([1]; 0.3% in high cholesterol diet): reduced
- liver weight compared with the HCD group ([1]; 0.3% in high cholesterol diet): decreased
- Body Weight Final ([1]; 0.2% in high cholesterol diet): 115.38 ± 9.02 g
- Body Weight Final ([1]; 0.3% in high cholesterol diet): 115.43 ± 7.00 g
- reducing serum TG, compared with β-sitosterol (Golden Syrian hamsters [2]; 0.2% and 0.3% diets): more effective than β-sitosterol
- plasma TC compared with the HCD group (Golden Syrian hamsters [2]; 0.2% in high cholesterol diet): significantly lower; also recorded: significantly reduces
- plasma TG compared with the HCD group (Golden Syrian hamsters [2]; 0.2% in high cholesterol diet): significantly lower; also recorded: significantly reduces
- plasma non-HDL-C compared with the HCD group (Golden Syrian hamsters [2]; 0.2% in high cholesterol diet): significantly lower
- dose dependence of the cholesterol-lowering effect (Golden Syrian hamsters [2]): not dose-dependent
- plasma TC compared with the HCD group (Golden Syrian hamsters [2]; 0.3% in high cholesterol diet): significantly lower; also recorded: significantly reduces
- plasma TG compared with the HCD group (Golden Syrian hamsters [2]; 0.3% in high cholesterol diet): significantly lower; also recorded: significantly reduces
- plasma non-HDL-C compared with the HCD group (Golden Syrian hamsters [2]; 0.3% in high cholesterol diet): significantly lower
- excretion of total neutral sterols compared with corresponding SA and SB (β-sitosterol) groups (Golden Syrian hamsters [3]; 0.2% and 0.3% diets, week 6): greater
- total fecal neutral sterols excreted compared with the controls (Golden Syrian hamsters [3]; [9]): greater
- total fecal neutral sterols excreted compared with the controls (Golden Syrian hamsters [3]; [10]): greater
- increase in excretion of cholesterol and its microbial derivatives compared with the HCD control (Golden Syrian hamsters [3]; 0.2% in high cholesterol diet): 11.5 fold
- increase in excretion of cholesterol and its microbial derivatives compared with the HCD control (Golden Syrian hamsters [3]; 0.3% in high cholesterol diet): 19.1 fold
- atherosclerotic plague compared with the HCD control group (Golden Syrian hamsters [4]; 0.2% in high cholesterol diet): significantly lesser
- atherosclerotic plague compared with the HCD control group (Golden Syrian hamsters [4]; 0.3% in high cholesterol diet): significantly lesser
- DHC accumulated in the liver (Golden Syrian hamsters [5]; 0.2% DHC in high cholesterol diet (DA)): about 2 mg DHC/g liver
- reducing the liver cholesterol, compared with SA and SB (β-sitosterol) (Golden Syrian hamsters [5]; 0.2% and 0.3% diets): more effective
- decrease in liver cholesterol (Golden Syrian hamsters [5]; 0.2% in high cholesterol diet): 67.5%
- hepatic cholesterol levels compared with the HCD control (Golden Syrian hamsters [5]; 0.2% in high cholesterol diet): significantly lower
- DHC accumulated in the liver (Golden Syrian hamsters [5]; 0.3% DHC in high cholesterol diet (DB)): about 2 mg DHC/g liver
- decrease in liver cholesterol (Golden Syrian hamsters [5]; 0.3% in high cholesterol diet): 71.5%
- hepatic cholesterol levels compared with the HCD control (Golden Syrian hamsters [5]; 0.3% in high cholesterol diet): significantly lower
- LXRα protein mass ([6]; 0.2% in high cholesterol diet): up-regulated LXRα slightly
- LXRα protein mass ([6]; 0.3% in high cholesterol diet): up-regulated LXRα slightly
- mRNA level of the LDL receptor compared with the HCD control (LDL receptor [7]; 0.2% in high cholesterol diet): up-regulated
- mRNA level of the LDL receptor compared with the HCD control (LDL receptor [7]; 0.3% in high cholesterol diet): up-regulated

SMILES: CC[C@H](CC[C@@H](C)[C@H]1CC[C@H]2[C@@H]3CC=C4C[C@@H](O)CC[C@]4(C)[C@H]3CC[C@]12C)C(C)C [β-sitosterol, reference compound]
- epididymal fat pad weight compared with the control ([1]; 0.2% in high cholesterol diet): decreased
- kidney weight compared with HCD ([1]; 0.2% in high cholesterol diet): reduced
- liver weight compared with the HCD group ([1]; 0.2% in high cholesterol diet): decreased
- epididymal fat pad weight compared with the control ([1]; 0.3% in high cholesterol diet): decreased
- kidney weight compared with HCD ([1]; 0.3% in high cholesterol diet): no significant difference
- liver weight compared with the HCD group ([1]; 0.3% in high cholesterol diet): decreased
- Body Weight Final ([1]; 0.2% in high cholesterol diet): 118.43 ± 13.74 g
- Body Weight Final ([1]; 0.3% in high cholesterol diet): 112.00 ± 8.05 g
- plasma TC compared with the HCD group (Golden Syrian hamsters [2]; 0.2% in high cholesterol diet): significantly lower
- plasma TG compared with the HCD group (Golden Syrian hamsters [2]; 0.2% in high cholesterol diet): significantly lower
- plasma non-HDL-C compared with the HCD group (Golden Syrian hamsters [2]; 0.2% in high cholesterol diet): significantly lower
- dose dependence of the cholesterol-lowering effect (Golden Syrian hamsters [2]): dose-dependent
- plasma TC compared with the HCD group (Golden Syrian hamsters [2]; 0.3% in high cholesterol diet): significantly lower
- plasma TG compared with the HCD group (Golden Syrian hamsters [2]; 0.3% in high cholesterol diet): significantly lower
- plasma non-HDL-C compared with the HCD group (Golden Syrian hamsters [2]; 0.3% in high cholesterol diet): significantly lower
- reducing plasma TC, compared with DHC (Golden Syrian hamsters [2]; [10]): more effective than DHC
- excretion of acidic sterols compared with corresponding DA and DB (DHC) groups (Golden Syrian hamsters [3]; 0.2% and 0.3% diets, week 6): greater
- total fecal neutral sterols excreted compared with the controls (Golden Syrian hamsters [3]; [9]): greater
- total fecal neutral sterols excreted compared with the controls (Golden Syrian hamsters [3]; [10]): greater
- reducing the formation of atherosclerotic plague, compared with DA and DB (DHC) diets (Golden Syrian hamsters [4]; 0.2% and 0.3% diets): more effective
- atherosclerotic plague compared with the HCD control group (Golden Syrian hamsters [4]; 0.2% in high cholesterol diet): significantly lesser
- atherosclerotic plague compared with the HCD control group (Golden Syrian hamsters [4]; 0.3% in high cholesterol diet): significantly lesser
- decrease in liver cholesterol (Golden Syrian hamsters [5]; 0.2% in high cholesterol diet): 30.5%
- hepatic cholesterol levels compared with the HCD control (Golden Syrian hamsters [5]; 0.2% in high cholesterol diet): significantly lower
- decrease in liver cholesterol (Golden Syrian hamsters [5]; 0.3% in high cholesterol diet): 38.4%
- hepatic cholesterol levels compared with the HCD control (Golden Syrian hamsters [5]; 0.3% in high cholesterol diet): significantly lower
- LDL receptor protein (LDL receptor [8]): significantly up-regulated
- LXRα protein mass ([6]; 0.2% in high cholesterol diet): significantly up-regulated
- LXRα protein mass ([6]; 0.3% in high cholesterol diet): significantly up-regulated
- mRNA level of the LDL receptor compared with the HCD control (LDL receptor [7]; 0.2% in high cholesterol diet): up-regulated
- mRNA level of the LDL receptor compared with the HCD control (LDL receptor [7]; 0.3% in high cholesterol diet): up-regulated

Source: patent US20170281650A1 (priority 2014, published 2017)
